Data as given in the supplement of paper PMC10307832.

Columns and labels:
Test in all cases: relative viability (nuclei count vs DMSO), 5 days (fraction); higher = more cells survive
XMD14-99 + Linsitinib = compound: CN1CCN(CC1)C2=CC(=C(C=C2)NC3=NC(=C(S3)C(=O)C4=C(C=CC=C4Cl)Cl)N)OC [XMD14-99] + C[C@]1(O)C[C@@H](c2nc(-c3ccc4ccc(-c5ccccc5)nc4c3)c3c(N)nccn32)C1 [Linsitinib] (partner 1 µM)
Method in brief: (§1)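 For relative viability, nuclei counts in treated wells were divided by those in vehicle wells. Lung cancer cell lines had been pin-tool dosed in 1536-well plates the day after seeding and cultured for 5 days, then fixed and stained in one step (final 0.05% Triton X-100, 1% formaldehyde, 1 ug/ml Hoechst) and imaged at 4×. Doses were one drug alone or a fixed anchor-drug dose plus five library-drug doses (not always all listed) in √10 steps, and values are duplicate-plate medians.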

AZD1208 + Crizotinib = compound: N[C@@H]1CCCN(c2c(/C=C3\SC(=O)NC3=O)cccc2-c2ccccc2)C1 [AZD1208] + C[C@@H](Oc1cc(-c2cnn(C3CCNCC3)c2)cnc1N)c1c(Cl)ccc(F)c1Cl [Crizotinib] (partner 1 µM)
Method in brief: as §1

AZD1208 + Pemetrexed = compound: N[C@@H]1CCCN(c2c(/C=C3\SC(=O)NC3=O)cccc2-c2ccccc2)C1 [AZD1208] + Nc1nc2[nH]cc(CCc3ccc(C(=O)N[C@@H](CCC(=O)O)C(=O)O)cc3)c2c(=O)[nH]1 [Pemetrexed] (partner 0.2 µM)
Method in brief: as §1

AZD1208 + Olaparib = compound: N[C@@H]1CCCN(c2c(/C=C3\SC(=O)NC3=O)cccc2-c2ccccc2)C1 [AZD1208] + O=C(c1cc(Cc2n[nH]c(=O)c3ccccc23)ccc1F)N1CCN(C(=O)C2CC2)CC1 [Olaparib] (partner 8 µM)
Method in brief: as §1

Cell Line | relative viability (XMD14-99 + Linsitinib; first compound 0.08 µM) | relative viability (XMD14-99 + Linsitinib; first compound 0.8 µM) | relative viability (XMD14-99 + Linsitinib; first compound 2.53 µM) | relative viability (XMD14-99 + Linsitinib; first compound 8 µM) | relative viability (AZD1208 + Crizotinib; first compound 0.08 µM) | relative viability (AZD1208 + Crizotinib; first compound 0.253 µM) | relative viability (AZD1208 + Crizotinib; first compound 0.8 µM) | relative viability (AZD1208 + Crizotinib; first compound 2.53 µM) | relative viability (AZD1208 + Crizotinib; first compound 8 µM) | relative viability (AZD1208 + Pemetrexed; first compound 0.08 µM) | relative viability (AZD1208 + Pemetrexed; first compound 0.253 µM) | relative viability (AZD1208 + Pemetrexed; first compound 2.53 µM) | relative viability (AZD1208 + Pemetrexed; first compound 8 µM) | relative viability (AZD1208 + Olaparib; first compound 0.08 µM) | relative viability (AZD1208 + Olaparib; first compound 0.253 µM) | relative viability (AZD1208 + Olaparib; first compound 2.53 µM) | relative viability (AZD1208 + Olaparib; first compound 8 µM) | relative viability (AZD1208 + Pemetrexed; first compound 0.8 µM) | relative viability (AZD1208 + Olaparib; first compound 0.8 µM)
NCI-H1792 | 0.637 | 0.522 | 0.432 | 0.311 | 1.03 | 1.08 | 0.858 | 0.956 | 0.907 | 0.912 | 1.11 | 0.698 | 0.556 | 0.414 | 0.39 | 0.44 | 0.246 |  | 
SW 1573 | 0.723 | 0.785 | 0.782 | 0.885 | 0.686 | 0.674 | 0.686 | 0.607 | 0.591 | 0.782 | 0.748 | 0.646 | 0.749 | 0.417 | 0.499 | 0.445 | 0.406 | 0.717 | 0.336
NCI-H2023 | 0.662 | 0.551 | 0.63 | 0.514 | 0.618 | 0.514 | 0.563 | 0.6 | 0.446 | 0.263 | 0.207 | 0.243 | 0.229 | 0.473 | 0.51 | 0.44 | 0.366 | 0.241 | 0.416
LOU-NH91 | 0.963 | 1 | 0.924 | 0.865 | 0.728 | 0.728 | 0.727 | 0.693 | 0.721 | 0.357 | 0.409 | 0.357 | 0.434 | 0.905 | 0.943 | 0.907 | 0.883 | 0.421 | 0.876
NCI-H3122 | 1 | 1.02 | 0.88 | 0.678 | 0.264 | 0.246 | 0.241 | 0.254 | 0.285 | 0.201 | 0.187 | 0.207 | 0.187 | 0.691 | 0.677 | 0.608 | 0.691 | 0.195 | 0.615
LCLC-97TM1 | 0.162 | 0.157 | 0.141 | 0.176 | 0.464 | 0.515 |  | 0.318 | 0.294 | 0.188 | 0.176 | 0.175 | 0.171 | 0.327 | 0.396 | 0.316 | 0.252 | 0.125 | 0.385
NCI-H647 | 1.25 | 1.12 | 1.27 | 0.929 | 0.953 | 1.09 | 0.894 | 0.906 | 0.757 | 0.19 | 0.195 | 0.188 | 0.165 | 0.504 | 0.587 | 0.531 | 0.285 | 0.17 | 0.383
NCI-H838 | 0.948 | 0.932 | 0.92 | 0.681 | 0.967 | 0.806 | 0.892 | 0.843 | 0.758 | 0.239 | 0.26 | 0.26 | 0.228 | 0.789 | 0.796 | 0.759 | 0.753 | 0.243 | 0.72
H3255 | 0.999 | 0.871 | 0.765 | 0.694 | 0.897 | 0.854 | 0.916 | 0.828 | 0.774 | 0.591 | 0.577 | 0.524 | 0.598 | 0.593 | 0.611 | 0.597 | 0.569 | 0.597 | 0.557
